These results are taken from ChEMBL document CHEMBL1152215, “6-[2-(4-Aryl-1-piperazinyl)ethyl]-2H-1,4-benzoxazin-3(4H)-ones: dual-acting 5-HT1 receptor antagonists and serotonin reuptake inhibitors” (Bioorg Med Chem Lett, 2008).

For data set [1], the target named is T1, 5-hydroxytryptamine receptor 1A (Homo sapiens, UniProt P08908).
T1 sequence (P08908 whole entry): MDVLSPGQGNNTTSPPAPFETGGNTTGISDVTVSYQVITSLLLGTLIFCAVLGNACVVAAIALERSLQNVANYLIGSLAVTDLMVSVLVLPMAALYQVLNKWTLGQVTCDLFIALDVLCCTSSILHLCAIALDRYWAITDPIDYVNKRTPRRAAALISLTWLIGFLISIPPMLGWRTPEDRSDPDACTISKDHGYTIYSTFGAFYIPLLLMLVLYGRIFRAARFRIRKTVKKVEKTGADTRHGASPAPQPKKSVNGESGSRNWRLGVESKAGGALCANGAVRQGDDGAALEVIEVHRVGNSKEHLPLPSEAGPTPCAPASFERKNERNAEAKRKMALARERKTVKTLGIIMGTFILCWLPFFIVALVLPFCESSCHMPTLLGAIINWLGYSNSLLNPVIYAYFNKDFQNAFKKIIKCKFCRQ
The data set is described as follows: Displacement of [3H]WAY-100635 from human 5HT1A receptor expressed in CHO cells. It counts as cell-based. For orientation: Loss of bound radioactivity is the signal in a displacement assay; it reports binding, not function.

Data set [2] deals with T2, 5-hydroxytryptamine receptor 1B (Homo sapiens, UniProt P28222). The experiment in a line: Displacement of [3H]5HT from human 5HT1B receptor expressed in CHO cells. It counts as cell-based.
T2 sequence (P28222 whole entry): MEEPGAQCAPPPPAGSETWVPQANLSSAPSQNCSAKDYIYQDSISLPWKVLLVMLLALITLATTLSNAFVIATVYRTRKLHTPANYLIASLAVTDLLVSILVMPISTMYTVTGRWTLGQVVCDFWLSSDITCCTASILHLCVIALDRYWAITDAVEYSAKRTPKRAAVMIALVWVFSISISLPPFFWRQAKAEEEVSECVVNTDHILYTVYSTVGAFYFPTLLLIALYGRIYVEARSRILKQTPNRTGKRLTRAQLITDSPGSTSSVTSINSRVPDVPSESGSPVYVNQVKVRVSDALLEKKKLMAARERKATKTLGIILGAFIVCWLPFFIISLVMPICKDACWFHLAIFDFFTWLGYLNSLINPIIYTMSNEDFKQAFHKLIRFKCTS
Data set [3] addresses T3, 5-hydroxytryptamine receptor 1D (Homo sapiens, UniProt P28221). The experiment in a line: Displacement of [3H]5HT from human 5HT1D receptor expressed in CHO cells. It counts as cell-based.
Data set [4] has as its target Sodium-dependent serotonin transporter (Homo sapiens, UniProt P31645). The experiment in a line: Displacement of [3H]citalopram from human SerT expressed pig LLCPK cells. It counts as cell-based.
The target in data set [5] is T4, 5-hydroxytryptamine receptor 1A (Homo sapiens) (UniProt P08908).
T4 sequence (whole entry): T1 sequence (P08908 whole entry)
The data set is described as follows: Intrinsic activity at human 5HT1A receptor expressed in CHO cells by [S35]GTPgammaS binding assay relative to serotonin. It counts as functional, cell-based.

Data set [6] addresses T2, 5-hydroxytryptamine receptor 1B. The experiment in a line: Intrinsic activity at human 5HT1B receptor expressed in CHO cells by [S35]GTPgammaS binding assay relative to serotonin. It counts as functional, cell-based.
Data set [7] concerns the target T3, 5-hydroxytryptamine receptor 1D. The experiment in a line: Intrinsic activity at human 5HT1D receptor expressed in CHO cells by [S35]GTPgammaS binding assay relative to serotonin. It counts as functional, cell-based. On the technique in general: GTPγS resists hydrolysis and so accumulates on activated G proteins.
The subject of data set [8] is Liver microsomes. The data set is described as follows: Metabolic stability in rat liver microsomes assessed as intrinsic clearance. It counts as ADME, Microsome. In general terms: Microsomes from liver hold many membrane-bound enzymes, among them those of drug oxidation.
Data set [9] in a line: Blood Clearance in rat at 0.5 mg/kg, iv and 1 mg/kg, po. The settings on record: whole blood. It counts as ADME, organism-based.
Data set [10] can be described thus: Volume of distribution in rat. It counts as ADME, organism-based. Particulars: in vivo, read-out: Vdss.
Data set [11] in a line: Half life in rat. It counts as ADME, organism-based. Particulars: in vivo.
Data set [12] can be described thus: Oral bioavailability in rat at 1 mg/kg. It counts as ADME, organism-based. The settings on record: in vivo.
The subject of data set [13] is Liver microsomes. The data set is described as follows: Metabolic stability in human liver microsomes assessed as intrinsic clearance. It counts as ADME, Microsome.
Data set [14] is described as follows: Ratio of drug level in brain to blood in rat. It counts as ADME, organism-based. The settings on record: brain / whole blood.

T3 sequence (P28221 whole entry): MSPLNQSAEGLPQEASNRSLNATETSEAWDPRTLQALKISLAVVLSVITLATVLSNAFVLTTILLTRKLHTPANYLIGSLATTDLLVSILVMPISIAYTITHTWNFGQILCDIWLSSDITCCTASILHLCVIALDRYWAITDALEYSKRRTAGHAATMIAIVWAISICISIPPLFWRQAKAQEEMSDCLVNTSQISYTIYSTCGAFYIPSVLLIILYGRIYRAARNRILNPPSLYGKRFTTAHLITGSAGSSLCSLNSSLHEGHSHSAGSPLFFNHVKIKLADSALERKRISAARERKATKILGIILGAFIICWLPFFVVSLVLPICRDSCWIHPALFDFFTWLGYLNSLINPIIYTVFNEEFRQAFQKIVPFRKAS
Sodium-dependent serotonin transporter, sequence (P31645 whole entry): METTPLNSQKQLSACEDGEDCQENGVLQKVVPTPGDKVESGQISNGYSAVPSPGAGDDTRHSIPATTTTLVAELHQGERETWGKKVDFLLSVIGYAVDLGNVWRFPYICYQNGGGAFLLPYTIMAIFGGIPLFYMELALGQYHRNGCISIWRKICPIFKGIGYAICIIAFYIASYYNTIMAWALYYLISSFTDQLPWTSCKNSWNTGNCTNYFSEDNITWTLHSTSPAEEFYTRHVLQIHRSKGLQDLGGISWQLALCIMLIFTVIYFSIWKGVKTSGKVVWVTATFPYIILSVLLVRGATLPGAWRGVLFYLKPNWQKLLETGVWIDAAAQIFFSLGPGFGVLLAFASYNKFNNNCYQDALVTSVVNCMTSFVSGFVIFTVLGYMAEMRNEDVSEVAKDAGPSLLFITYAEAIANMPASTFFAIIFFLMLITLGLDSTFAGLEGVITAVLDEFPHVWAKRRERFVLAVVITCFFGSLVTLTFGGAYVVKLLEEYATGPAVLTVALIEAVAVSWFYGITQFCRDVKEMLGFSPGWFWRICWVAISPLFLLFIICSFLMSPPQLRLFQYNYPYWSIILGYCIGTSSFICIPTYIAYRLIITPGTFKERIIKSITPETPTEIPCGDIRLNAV

Broadly, the Ki is the dissociation constant of the complex between target and ligand, obtained from inhibition or displacement. Low values mean tighter binding, high ones weaker binding. On to `Cc1ccc2c(N3CCN(CCc4ccc5c(c4)NC(=O)CO5)[C@H](C)C3)cccc2n1`, for which the Ki is 1.58 nM in data set [1], 7.94 nM in data set [2], 0.501 nM in data set [3] and 0.794 nM in data set [4]. For the same compound, the Intrinsic activity in data set [5], in data set [6] and in [7] was 0 throughout.
Regarding `Cc1ccc2c(N3CCN(CCc4ccc5c(c4)NC(=O)CO5)CC3)cc(Cl)cc2n1`, the Ki in data set [1] is 0.316 nM; in [2], 0.501 nM; in data set [3] it was 0.158 nM; in data set [4], 0.794 nM. The figures for the Intrinsic activity in data set [5], in [6] and in [7] were 0.4, 0 and 0, respectively.
Regarding `Cc1cc(N2CCN(CCc3ccc4c(c3)NC(=O)CO4)CC2)c2ccc(C)nc2c1`, the Ki was 0.126 nM in [1], 0.631 nM in data set [2], 0.398 nM in [3] and 15.8 nM in data set [4]. The results for the Intrinsic activity in data set [5], in [6] and in data set [7] were 1.2, 0.3 and 0.3, respectively.
As for `O=C1COc2ccc(CCN3CCN(c4cccc5nc(-c6ccccc6)ccc45)CC3)cc2N1`, the Ki in data set [1] was 0.631 nM; in [2], 0.316 nM; in data set [3], 12.6 nM; in [4], 0.158 nM. Further, the Intrinsic activity in [5] was determined as 0.4; in data set [6], 0.2; in [7] it was 0.
With `Cc1ccc2c(N3C[C@H]4C[C@@H]3CN4CCc3ccc4c(c3)NC(=O)CO4)cccc2n1`, the Ki in [1] was 126 nM; in [2], 0.794 nM; in data set [3], 25.1 nM; in data set [4], 3.98 nM. Also, the Intrinsic activity in data set [5] was found to be 0.8; in data set [6], 0.2; in data set [7] it was 0.
Consider `Cc1ccc2c(N3CCN(CCc4ccc5c(c4)NC(=O)CO5)CC3)ccc(F)c2n1`, for which the Ki was 0.251 nM in [1], 126 nM in data set [2], 0.316 nM in data set [3] and 3.98 nM in [4]. The figures for the Intrinsic activity in data set [5], in [6] and in [7] were 0.2, 0 and 0, respectively.
In the case of `Cc1ccc2c(N3CCN(CCc4ccc5c(c4)NC(=O)CO5)CC3)cc(F)cc2n1`, the Ki is 2.51 nM in [1], 2.51 nM in [2], 0.2 nM in data set [3] and 0.794 nM in data set [4]. In addition, the Intrinsic activity in data set [5], in data set [6] and in [7] was 0 each time.
Turning to `CCN1C(=O)COc2ccc(CCN3CCN(c4cccc5nc(C)ccc45)CC3)cc21`, the Ki in data set [1] was 0.501 nM; in data set [2], 0.794 nM; in [3], 0.398 nM; in data set [4], 79.4 nM. Further, the Intrinsic activity in data set [5], in [6] and in data set [7] was 0 each time.
On to `Cc1ccc2c(N3CCN(CCc4ccc5c(c4)NC(=O)CO5)CC3C)cccc2n1` (centres undefined), for which the Ki in [1] was 0.794 nM; in data set [2], 2 nM; in data set [3], 0.316 nM; in data set [4] it was 10 nM. Further, the results for the Intrinsic activity in [5], in data set [6] and in data set [7] were 0.2, 0.1 and 0, respectively.
As usually defined, the half-life is the time needed for the level to fall by half in the phase considered. A low value points to rapid decline. For orientation: bioavailability means dose-corrected exposure relative to a reference, in per cent. A higher bioavailability goes with good availability. Take `Cc1ccc2c(N3CCN(CCc4ccc5c(c4)NC(=O)CO5)CC3)cccc2n1`: the Intrinsic activity in data set [5] was found to be 0.2; in [6] it was 0.1. Besides, the values for the CL in data set [8] and in data set [13] were 1.3 mL/min/g and less than 0.5 mL/min/g, respectively. In [9], this compound registered a clearance of 5 mL/min/kg. In data set [10], the Vd came to 2 L/kg. In [11], the half-life was 5.1 h. The compound further registered a bioavailability in [12] of 68%.
`Cc1cc2c(N3CCN(CCc4ccc5c(c4)NC(=O)CO5)CC3)cccc2[nH]1`: the Ki in [1] is 3.16 nM; in data set [2] it was 0.398 nM; in data set [3], 0.2 nM; in data set [4] it was 6.31 nM. Moreover, the Intrinsic activity was determined as 0.3 in [5], 0.4 in [6] and 0.4 in data set [7].
Regarding `O=C1COc2ccc(CCN3CCN(c4nccc5ccccc45)CC3)cc2N1`, the inhibition constant Ki in data set [1] was 100 nM; in [2], 0.794 nM; in data set [3] it was 0.251 nM; in [4], 0.794 nM. For the same compound, the Intrinsic activity in [5] worked out at 1; in data set [6], 0.5; in data set [7] it was 0.4.
In the case of `Cc1ccc2c(N3CCN(CCc4cc(F)c5c(c4)NC(=O)CO5)CC3)cccc2n1`, the Ki in data set [1] was 1.26 nM; in data set [2], 1 nM; in [3], 0.2 nM; in data set [4], 1.26 nM. Further, the Intrinsic activity worked out at 0 in data set [5], 0.3 in data set [6] and 0 in data set [7].
Consider `Cc1ccc2c(N3CCN(CCc4cc5c(cc4F)OCC(=O)N5)CC3)cccc2n1`, for which the inhibition constant Ki in data set [1] was 0.251 nM; in [2], 1.58 nM; in [3], 0.251 nM; in data set [4], 0.794 nM. For the same compound, the Intrinsic activity in [5] worked out at 0.2; in [6], 0.1; in [7], 0.
As to `O=C1COc2ccc(CCN3CCN(c4cccc5cccnc45)CC3)cc2N1`, the Ki in data set [1] was 1.58 nM; in data set [2], 31.6 nM; in data set [3], 0.251 nM; in [4], 10 nM. Also, the Intrinsic activity in data set [5] is 0.8; in data set [6], 0.7; in data set [7], 0.7.
As for `Cc1ccc2c(N3CCN(CCc4ccc5c(c4)NC(=O)CO5)CC3)ccc(Cl)c2n1`, the Ki in data set [1] was 3.98 nM; in [2], 0.501 nM; in [3], 0.2 nM; in [4], 1.58 nM. Further, the values for the Intrinsic activity in [5], in data set [6] and in [7] were 0.7, 0.3 and 0, respectively.
With `CC1(C)Cc2cccc(N3CCN(CCc4ccc5c(c4)NC(=O)CO5)CC3)c2O1`, the inhibition constant Ki in data set [1] is 0.501 nM; in data set [2] it was 0.631 nM; in [3] it was 0.158 nM; in data set [4], 2.51 nM. The Intrinsic activity was 1.2 in data set [5], 0.6 in [6] and 0.5 in data set [7].
As to `Cc1ccc2c(N3CCN(CCc4ccc5c(c4)NC(=O)CO5)[C@@H](C)C3)cccc2n1`, the inhibitory constant (Ki) in data set [1] is 3.16 nM; in data set [2] it was 1.26 nM; in data set [3], 1.58 nM; in [4] it was 0.398 nM. The Intrinsic activity in data set [5], in data set [6] and in data set [7] was 0 in each case.
For the compound `Cc1ccc2c(N3CCN(CCc4ccc5c(c4F)NC(=O)CO5)CC3)cccc2n1`, the Ki in [1] was 0.251 nM; in data set [2] it was 0.398 nM; in [3], 0.398 nM; in data set [4], 5.01 nM. Moreover, the results for the Intrinsic activity in [5], in data set [6] and in data set [7] were 0.3, 0.2 and 0, respectively.
As a reminder, the Kp is the ratio of the level in a tissue or fluid to that in plasma or blood. Consider `Cc1ncc2c(N3CCN(CCc4ccc5c(c4)NC(=O)CO5)CC3)cccc2n1`, for which the Ki is 0.398 nM in data set [1], 0.631 nM in [2], 0.316 nM in [3] and 2 nM in [4]. For the same compound, the Intrinsic activity in [5] was found to be 0.6; in data set [6], 0.2; in [7], 0. The compound further had a clearance in [9] of 4 mL/min/kg. Further, the Vd in data set [10] stood at 1.1 L/kg. For the same compound, the half-life in data set [11] was 2.8 h. The same compound had a bioavailability in data set [12] of 67%. For the same compound, in data set [14], the Kp amounted to 0.3.
As for `Cc1ccc2c(N3CCN(CCc4ccc5c(c4)N(C)C(=O)CO5)CC3)cccc2n1`, the results for the Intrinsic activity in [5] and in [6] were 0.3 and 0.2, respectively. Besides, the results for the CL in data set [8] and in [13] were 0.8 mL/min/g and 1.1 mL/min/g, respectively. This compound gave a clearance in data set [9] of 8 mL/min/kg. Besides, the Vd in data set [10] came to 2.7 L/kg. For the same compound, in data set [11], the half-life was 4.4 h. The bioavailability in data set [12] is 59%.
